Laboratory results reported in patent publication US20100323990A1, “SHIP 1 MODULATOR PRODRUGS” (THE UNIVERSITY OF BRITISH COLUMBIA, priority 2006, published 2010).

Columns and labels:
[1] = test system: J774.1 macrophage cells; experiment: TNFα production in LPS-stimulated J774.1 macrophages (Example 9); assay type: cell-based; settings: 2 ng/mL LPS
Method: An assay to determine the relative inhibition of TNFα production by Compound 103 compared to Compound 100 was conducted as follows.
J774.1 macrophage cells were plated at 2×10^5 cells/well in 24 well plates. The next day the media was changed and Compound 100, Compound 103 or cyclodextrin carrier were added to the wells at the indicated concentrations for 30 min prior to stimulation of the cells with 2 ng/mL lipopolysaccharide (LPS). LPS activation of macrophages leads to production of TNF alpha which can be detected in the culture supernatant and quantified by ELISA. The results are depicted in a graph in FIG. 1.

[2] = test system: J774.1a macrophage cells; experiment: Macrophage TNF-α NO assay (Assay 3), Griess reagent; assay type: cell-based; settings: 10 μg/ml test compound, LPS, supernatants after 24 hr; note: key: a ‘+’ indicates a positive result for desired activity; a ‘−’ indicates a negative result for desired activity
Method: (§1) Assay 1) In vitro testing in a SHIP enzyme assay. Test compounds were dissolved in a suitable solvent (e.g. EtOH, DMSO and others) and diluted into aqueous buffer (20 mM Tris HCl, pH 7.5 and 10 mM MgCl2). SHIP enzyme assays were performed in 96-well microtitre plates with 10 ng of enzyme/well in a total volume of 25 μL of 20 mM Tris HCl, pH 7.5 and 10 mM MgCl2. SHIP enzyme was incubated with test extracts (provided in solvent) or vehicle for 15 min at 23° C. before the addition of 100 μM inositol-1,3,4,5-tetrakisphosphate (Echelon Biosciences Inc, Salt Lake City, Utah). After 20 min at 37° C. and the amount of inorganic phosphate released assessed by the addition of Malachite Green reagent and absorbance measurement at 650 nm. Assay 2) Macrophage TNF-α production. J774.1a macrophage cells were treated with 10 μg/mL of test compound dissolved in solvent (e.g. cyclodextran) for 40 minutes prior to the addition of 100 ng/mL LPS. Culture supernatants were collected after 2 hr and 5 hr for TNF-α determination by ELISA. Assay 3) Macrophage TNF-α NO assay. J774.1a macrophage cells were treated with 10 μg/ml of test compound dissolved in solvent for 40 minutes prior to the addition of LPS. Culture supernatants were collected after 24 hr. for determination of NO concentration using the Griess reagent. Assay 4) Stimulation of mast cells by FcεRI crosslinking. Mast cells were pre-loaded overnight in BMMC medium lacking IL-3 with 0.1 μg/ml anti-DNP IgE (SPE-7, Sigma, Oakville, Ont). For calcium flux measurements, cells were incubated with 2 μM fura 2-acetoxymethyl ester (Molecular Probes, Eugene, Oreg.) in Tyrode's buffer at 23° C. for 45 min. Cells were then washed and incubated in the presence of the test compound 30 min prior to stimulation with the indicated concentration of DNP-human serum albumin (DNP-HSA). Calcium influx was monitored by spectrofluorometry as described previously. For analysis of intracellular signaling, cells were pre-loaded with anti-DNP IgE as above, pre-treated with the test compound for 30 min at 37° C. and stimulated with 20 ng/ml DNP-HSA for 5 min. Total cell lysates were then prepared and analyzed for phospho-PKB, phospho-p38^MAPK, phospho-MAPK, Grb-2 (Cell Signalling, Mississauga, Ont) and SHIP^6 by immunoblot analysis. Assay 5) Mouse acute cutaneous anaphylaxis model. 6-8 week old CD1 mice (University of British Columbia Animal Facility, Vancouver, BC) were sensitized to the hapten DNP by cutaneous application of 25 μL of 0.5% dinitrofluorobenzene (DNFB) (Sigma, Oakville, Ont) in acetone to the shaved abdomen of mice for two consecutive days. 24 hrs later, test substances (dissolved in 10 μL of 1:2 DMSO:MeOH) were painted on the right ear while the left ear received vehicle control. 30 min after drug application, DNFB was applied to both ears to induce mast cell degranulation. A 6 mm punch was taken from the ear and immediately frozen on dry ice for subsequent determination of neutrophil myeloperoxidase (MPO) activity. Assay 6) Mouse endotoxemia model. 6-8 week old C57B16 mice (VCHRI Mammalian Model of Human Disease Core Facility, Vancouver, BC) were orally administered the test compound 30 min prior to an IP injection of 2 mg/kg of LPS (E. Coli serotype 0111:B4, Sigma, Oakville, Ont). Blood was drawn 2 hrs later for determination of plasma TNFα by ELISA. Assay 7) In vitro Mulitple Myeloma (MM) assay. The ability of SHIP activators to reduce tumor cell survival was assessed in MM cell lines treated with the test compound. The lines OPM1, OPM2, MM.1S and RPMI 8226 were plated at a density of 1×10^5 cells/mL in 200 μL of medium with various concentrations of the test compound, and viable cell numbers were determined on day 3 and day 5 by trypan blue exclusion. The lines RPMI 8226 and U266 were plated at a density of 1×10^6 cells/mL in 250 μL of medium with various concentrations of the test compound. At day 4, the medium of each culture was replaced by fresh medium containing the same concentration of test compound. […]

[3] = test system: J774.1a macrophage cells; experiment: Macrophage TNF-α production (Assay 2); assay type: cell-based; settings: 10 μg/mL test compound, 100 ng/mL LPS, supernatants after 2 hr and 5 hr; note: key: a ‘+’ indicates a positive result for desired activity; a ‘−’ indicates a negative result for desired activity
Method: as §1

[4] = test system: SHIP+/+ bone marrow derived macrophages; experiment: LPS-stimulated TNFα production in SHIP+/+ bone marrow derived macrophages; assay type: cell-based, mice; settings: SHIP+/+ cells, 15 μM, 10 ng/mL LPS 2 h
Method: (§2) Bone marrow cells were aspirated from 4 to 8 week old C57B16×129Sv mixed background mice and SHIP^+/+ and SHIP^−/− mast cells prepared as described previously. Bone marrow derived macrophages from SHIP^+/+ and SHIP^−/− mice were obtained and maintained in IMDM supplemented with 10% FCS, 150 μM MTG, 2% C127 cell conditioned medium as a source of macrophage colony stimulating factor (M-CSF) (macrophage medium)
LPS stimulation of macrophages. For the analysis of LPS-stimulated TNFα production, 2×10^5 cells were plated the night before in 24 well plates in macrophage medium. The next day, the medium was changed and AQX-016A or carrier was added to cells at the indicated concentrations for 30 min prior to the addition of 10 ng/mL LPS. Supernatants were collected for TNFα determination by ELISA (BD Biosciences, Mississauga, ON, Canada). For analysis of intracellular signaling, 2×10^6 cells were plated the night before in 6 cm tissue culture plates. The next day, the cells were cultured in macrophage medium without M-CSF for 1 hr at 37° C. and then pretreated with AQX-016A or carrier for 30 min prior to the addition of 10 ng/mL LPS for 15 min. Cells were washed with 4° C. PBS and resuspended in lysis buffer (50 mM Hepes, 2 mM EDTA, 1 mM NaVO4, 100 mM NaF, 50 mM NaPPi and 1% NP40) supplemented with Complete Protease Inhibitor Cocktail (Roche, Montreal, Canada). Lysates were rocked at 4° C. for 30 min and clarified by centrifuging 20 min at 12000×g. Lysates were then made 1× in Laemmli's buffer, boiled 2 min and loaded onto 7.5% SDS polyacrylamide […]. Immunoblot analysis for phospho PKB (Cell Signalling, Mississauga, Ont), SHIP and actin (Santa Cruz, Santa Cruz, Calif.) were carried out as described previously. Stimulation of mast cells by FcεRI crosslinking. Mast cells were pre-loaded overnight in BMMC medium lacking IL-3 with 0.1 μg/ml anti-DNP IgE (SPE-7, Sigma, Oakville, Ont). For calcium flux measurements, cells were incubated with 2 μM fura 2-acetoxymethyl ester (Molecular Probes, Eugene, Oreg.) in Tyrode's buffer at 23° C. for 45 min. Cells were then washed and incubated in the presence of vehicle control, LY294002 or AQX-016A 30 min prior to stimulation with the indicated concentration of DNP-human serum albumin (DNP-HSA). Calcium influx was monitored by spectrofluorometry. For analysis of intracellular signaling, cells were pre-loaded with anti-DNP IgE as above, pre-treated with AQX-016A or buffer control for 30 min at 37° C. and stimulated with 20 ng/ml DNP-HSA for 5 min. Total cell lysates were then prepared and analyzed for phospho-PKB, phospho-p38^MAPK, phospho-MAPK, Grb-2 (Cell Signalling, Mississauga, Ont) and SHIP^6 by immunoblot analysis.
The target specificity and biological efficacy of AQX-016A were assessed by comparing AQX-016A's effects on PI3K-regulated processes in primary SHIP^+/+ vs SHIP^−/− macrophages and mast cells. […] LPS stimulation of macrophages is associated with a PIP3-dependent release of pro-inflammatory mediators such as TNFα. The action of AQX-016A on SHIP^+/+ vs SHIP^−/− bone marrow derived macrophages was examined. Cells were pretreated for 30 min with AQX-016A prior to stimulation with 10 ng/mL of LPS for 2 h. AQX-016A was able to suppress TNFα production in SHIP^+/+ cells by 30% at 3 μM and 50% at 15 μM (FIG. 8A). […] Activation of mast cells via IgE+ antigen crosslinking of their IgE receptors results in elevation of intracellular calcium levels.

[5] = test system: SHIP−/− bone marrow derived macrophages; experiment: LPS-stimulated TNFα production in SHIP−/− bone marrow derived macrophages; assay type: cell-based, mice; settings: SHIP−/− cells, 15 μM, 10 ng/mL LPS 2 h
Method: as §2
LPS stimulation of macrophages. For the analysis of LPS-stimulated TNFα production, 2×10^5 cells were plated the night before in 24 well plates in macrophage medium. The next day, the medium was changed and AQX-016A or carrier was added to cells at the indicated concentrations for 30 min prior to the addition of 10 ng/mL LPS. Supernatants were collected for TNFα determination by ELISA (BD Biosciences, Mississauga, ON, Canada). For analysis of intracellular signaling, 2×10^6 cells were plated the night before in 6 cm tissue culture plates. […] Calcium influx was monitored by spectrofluorometry. […] Total cell lysates were then prepared and analyzed for phospho-PKB, phospho-p38^MAPK, phospho-MAPK, Grb-2 (Cell Signalling, Mississauga, Ont) and SHIP^6 by immunoblot analysis.
The target specificity and biological efficacy of AQX-016A were assessed by comparing AQX-016A's effects on PI3K-regulated processes in primary SHIP^+/+ vs SHIP^−/− macrophages and mast cells. […]

[6] = test system: SHIP enzyme; experiment: In vitro SHIP enzyme assay (Assay 1), phosphate release by Malachite Green; assay type: biochemical; settings: PI-3,4-P2 20 μM, Compound 100 3 μM, 30 μM IP4
Method: as §1

[7] = target: T1, ΔC2 SHIP (Homo sapiens, UniProt Q92835, DEL725-863); experiment: SHIP enzyme assay with C2 domain deleted SHIP; assay type: biochemical; settings: PI-3,4-P2 20 μM, Compound 100 3 μM, 30 μM IP4
T1 construct: His6; made in house; host or cells: mammalian expression vector pME18S
T1 sequence (Q92835 with tags, fused parts or gaps DEL725-863): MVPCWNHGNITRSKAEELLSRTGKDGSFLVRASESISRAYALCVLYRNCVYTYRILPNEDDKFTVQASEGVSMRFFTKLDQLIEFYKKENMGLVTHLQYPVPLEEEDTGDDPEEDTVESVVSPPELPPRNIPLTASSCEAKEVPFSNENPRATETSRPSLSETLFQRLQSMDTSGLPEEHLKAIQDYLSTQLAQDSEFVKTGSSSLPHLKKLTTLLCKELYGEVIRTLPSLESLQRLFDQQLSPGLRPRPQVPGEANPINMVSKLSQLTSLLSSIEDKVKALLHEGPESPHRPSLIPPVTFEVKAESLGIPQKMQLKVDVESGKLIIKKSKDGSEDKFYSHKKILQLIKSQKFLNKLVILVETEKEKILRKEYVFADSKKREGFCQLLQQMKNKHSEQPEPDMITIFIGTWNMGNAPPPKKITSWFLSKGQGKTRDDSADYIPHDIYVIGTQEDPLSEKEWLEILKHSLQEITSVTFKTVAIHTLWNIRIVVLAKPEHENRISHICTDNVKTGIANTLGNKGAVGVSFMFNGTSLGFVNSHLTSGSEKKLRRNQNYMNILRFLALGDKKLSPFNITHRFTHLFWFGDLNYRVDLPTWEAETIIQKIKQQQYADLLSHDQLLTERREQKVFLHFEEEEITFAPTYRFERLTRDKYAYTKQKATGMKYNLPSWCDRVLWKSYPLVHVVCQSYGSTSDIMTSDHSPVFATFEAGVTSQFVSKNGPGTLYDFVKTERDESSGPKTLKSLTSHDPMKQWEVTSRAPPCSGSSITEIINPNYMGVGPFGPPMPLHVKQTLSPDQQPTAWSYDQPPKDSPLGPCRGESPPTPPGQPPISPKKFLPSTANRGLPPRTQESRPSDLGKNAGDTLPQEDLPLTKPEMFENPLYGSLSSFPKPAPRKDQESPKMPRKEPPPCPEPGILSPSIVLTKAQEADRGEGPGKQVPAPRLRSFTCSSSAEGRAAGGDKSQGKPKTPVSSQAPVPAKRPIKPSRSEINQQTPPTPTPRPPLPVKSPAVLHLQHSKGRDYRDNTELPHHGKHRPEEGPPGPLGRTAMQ
Excerpt: A His6 tagged SHIP ΔC2 domain deletion mutant (deleting residues 725 to 863) in the mammalian expression vector pME18S was generated by a standard PCR-based methodology. An N-terminal His6 C2 domain construct was also generated by PCR inserted into the pET28C bacterial expression vector using EcoRI and NdeI restriction sites.
The allosteric regulation of enzymes has remained under-appreciated primarily because allosteric effectors are not easy to find. The molecular mechanism by which Compound 100 activated SHIP was investigated, first by performing classical enzyme kinetic analysis of its phosphatase activity. Activity measurements were performed with substrate concentrations from 10-100 μM.
The SHIP protein contains a C2 domain located at the carboxyterminal end of its phosphatase domain. […] SHIP lacking its the C2 domain (ΔC2 SHIP) was prepared.

## Cc1cc(OC(=O)CN)cc2c1[C@]1(C)CCC3C(C)(C)CCC[C@]3(C)[C@H]1C2 (stereo partly shown) [Compound 103]
[1]
  relative inhibition of TNFα production: Inhibits TNF Alpha Production Better than Compound 100
[2]
  Assay 3: Macrophage NO assay, desired activity: +
[3]
  Assay 2: Macrophage TNF-α production, desired activity: +

## O=c1cc(N2CCOCC2)oc2c(-c3ccccc3)cccc12 [LY294002, reference compound]
[4]
  suppression of TNFα production: ~40%
[5]
  suppression of TNFα production: ~40%

## CCCCCCCCCCCCCCCC(=O)OC[C@H](COP(=O)(O)O[C@H]1[C@H](O)[C@@H](O)[C@H](OP(=O)(O)O)[C@@H](OP(=O)(O)O)[C@H]1O)OC(=O)CCCCCCCCCCCCCCC [PI-3,4-P2, reference compound]
[6]
  activation of wild-type SHIP enzyme: activated wild-type SHIP enzyme to a similar extent as Compound 100
[7]
  enhancement of ΔC2 SHIP activity: could not be enhanced
